In US4753953A, “Pyridonecarboxylic acid derivatives and antibacterial pharmaceutical compositions thereof” (priority 1985, dated 1988):
≈ marks a conversion by molar mass, not a printed value. Where two headings read alike, the source gives them in different places.

Legend:
S. aureus Smith = test: MIC, in vitro antibacterial activity (standard strains); assay type: cell-based, Staphylococcus aureus; settings: Staphylococcus aureus; 10^6 cells/ml; Gram +; read-out: MIC
[1] = tested on: Escherichia coli NIHJ JC-2; test: as above; assay type: cell-based; settings: Escherichia coli, NIHJJC2; 10^6 cells/ml; Gram -; read-out: MIC
[2] = tested on: Propionibacterium acens 11828; test: as above; assay type: cell-based; settings: Propionibacterium, 11828; 10^6 cells/ml; Gram +; read-out: MIC
[3] = tested on: B. thetaiotaomicron (0661); test: as above; assay type: cell-based; settings: Bacteroides thetaiotaomicron; 10^6 cells/ml; Gram -; read-out: MIC
P. cepacia GIFU 518 = test: as above; assay type: cell-based; settings: Burkholderia cepacia, GIFU518
Shigella sonnei IID 969 = test: as above; assay type: cell-based; settings: Shigella sonnei, IID969; 10^6 cells/ml; Gram -; read-out: MIC
Description: Minimal inhibitory concentrations (MICs) were determined in accordance with the method recommended by Japan Society of Chemotherapy.

[4] = tested on: Eubacterium lentum GAI 5242; test: as above; assay type: cell-based; settings: Eggerthella lenta, GAI5242; 10^6 cells/ml; Gram +; read-out: MIC
[5] = tested on: Veillonella parvula KYA 10790; test: as above; assay type: cell-based; settings: Veillonella parvula, KYA10790; 10^6 cells/ml; Gram -; read-out: MIC
[6] = tested on: Peptostreptococcus anaerobius KYA 27337; test: as above; assay type: cell-based; settings: Peptostreptococcus anaerobius, KYA27337; 10^6 cells/ml; Gram +; read-out: MIC
[7] = tested on: Alcaligenes faecalis 0114002; test: as above; assay type: cell-based; settings: Alcaligenes faecalis, 0114002; 10^6 cells/ml; Gram -; read-out: MIC
C. perfringens KYA 13123 = test: microbe, parasite or virus in culture; assay type: cell-based; settings: Clostridium perfringens, KYA13123
S. pyogenes IID 692 = test: MIC, in vitro antibacterial activity (standard strains); assay type: cell-based, Streptococcus pyogenes; settings: Streptococcus pyogenes, IID692; 10^6 cells/ml; Gram +; read-out: MIC
E. faecalis IID 682 = test: as above; assay type: cell-based; settings: Enterococcus faecalis, IID682; 10^6 cells/ml; Gram +; read-out: MIC
[8] = tested on: Morganella morganii IID 602; test: as above; assay type: cell-based; settings: Morganella morganii, IID602; 10^6 cells/ml; Gram -; read-out: MIC
[9] = tested on: Acinetobacter anitratus IID 876; test: as above; assay type: cell-based; settings: Acinetobacter calcoaceticus, IID876; 10^6 cells/ml; Gram -; read-out: MIC
[10] = tested on: Staphylococcus aureus 209 P; test: as above; assay type: cell-based; settings: Staphylococcus aureus, 209P; 10^6 cells/ml; Gram +; read-out: MIC
[11] = tested on: S. aureus IID 670 (Terajima); test: as above; assay type: cell-based, Staphylococcus aureus; settings: Staphylococcus aureus, IID670; 10^6 cells/ml; Gram +; read-out: MIC
B. fragilis 25285 = test: as above; assay type: cell-based, Bacteroides fragilis; settings: Bacteroides fragilis, 25285; 10^6 cells/ml; Gram -; read-out: MIC
[12] = tested on: Bacteroides fragilis GM 7000; test: as above; assay type: cell-based; settings: Bacteroides fragilis, GM7000; 10^6 cells/ml; Gram -; read-out: MIC
[13] = tested on: Citrobacter freundii IID 976; test: as above; assay type: cell-based; settings: Citrobacter freundii, IID976
[14] = tested on: Pseudomonas aeruginosa V-1; test: as above; assay type: cell-based; settings: Pseudomonas aeruginosa, V1; 10^6 cells/ml; Gram -; read-out: MIC
[15] = tested on: Klebsiella pneumoniae KY(GN)6445; test: as above; assay type: cell-based; settings: Klebsiella pneumoniae
[16] = tested on: Fusobacterium mortiferum 4249; test: as above; assay type: cell-based; settings: Fusobacterium mortiferum, 4249; 10^6 cells/ml; Gram -; read-out: MIC
P. aeruginosa IFO 12689 = test: as above; assay type: cell-based, Pseudomonas aeruginosa; settings: Pseudomonas aeruginosa, IFO12689; 10^6 cells/ml; Gram -; read-out: MIC
S. pneumoniae IID 552 = test: as above; assay type: cell-based; settings: Streptococcus pneumoniae, IID552; 10^6 cells/ml; Gram +; read-out: MIC
P. mirabilis IID 994 = test: as above; assay type: cell-based; settings: Proteus mirabilis, IID994; 10^6 cells/ml; Gram -; read-out: MIC
K. pneumoniae 1-220S = test: as above; assay type: cell-based, Klebsiella pneumoniae; settings: Klebsiella pneumoniae, 1220S; 10^6 cells/ml; Gram -; read-out: MIC
[17] = tested on: Yersinia enterocolitica IID 981; test: as above; assay type: cell-based; settings: Yersinia enterocolitica, IID981; 10^6 cells/ml; Gram -; read-out: MIC
P. aeruginosa IID 1210 = test: as above; assay type: cell-based, Pseudomonas aeruginosa; settings: Pseudomonas aeruginosa, IID1210; 10^6 cells/ml; Gram -; read-out: MIC
P. maltophilia GIFU 2491 = test: as above; assay type: cell-based; settings: Stenotrophomonas maltophilia, GIFU2491
[18] = tested on: Enterobacter cloacae IID 977; test: as above; assay type: cell-based; settings: Enterobacter cloacae, IID977; 10^6 cells/ml; Gram -; read-out: MIC
[19] = tested on: Salmonella enteritidis IID 604; test: as above; assay type: cell-based; settings: Salmonella enterica; 10^6 cells/ml; Gram -; read-out: MIC
[20] = 10^6 cells/ml, Gram -, read-out: MIC

SMILES | MIC (S. aureus Smith) [µg/mL] | MIC [1] [µg/mL] | MIC [2] [µg/mL] | MIC [3] [µg/mL] | MIC (P. cepacia GIFU 518) [µg/mL] | MIC (Shigella sonnei IID 969) [µg/mL] | MIC [4] [µg/mL] | MIC [5] [µg/mL] | MIC [6] [µg/mL] | MIC [7] [µg/mL] | MIC (C. perfringens KYA 13123) [µg/mL] | MIC (S. pyogenes IID 692) [µg/mL] | MIC (E. faecalis IID 682) [µg/mL] | MIC [8] [µg/mL] | MIC [9] [µg/mL] | MIC [10] [µg/mL] | MIC [11] [µg/mL] | MIC (B. fragilis 25285) [µg/mL] | MIC [12] [µg/mL] | MIC [14] [µg/mL] | further results
C[C@@H]1CN(c2c(F)cc3c(=O)c(C(=O)O)cn(C4CC4)c3c2F)C[C@H]1N (relative stereo) [Example 18, 7-(trans-3-Amino-4-methyl-1-pyrrolidinyl)-1-cyclopropyl-6,8-difluoro-1,4-dihydro-4-oxo-3-quinolinecarboxylic acid] | 0.05 (≈ 0.138 µM) | 0.0063 (≈ 0.0173 µM) | 1.56 (≈ 4.29 µM) | 0.39 (≈ 1.07 µM) | 0.1 (≈ 0.275 µM) | 0.0125 (≈ 0.0344 µM) | 0.1 (≈ 0.275 µM) | 0.1 (≈ 0.275 µM) | 0.2 (≈ 0.55 µM) | 0.1 (≈ 0.275 µM) | 0.1 (≈ 0.275 µM) | 0.1 (≈ 0.275 µM) | 0.1 (≈ 0.275 µM) | 0.05 (≈ 0.138 µM) | 0.025 (≈ 0.0688 µM) | 0.05 (≈ 0.138 µM) | 0.2 (≈ 0.55 µM) | 0.2 (≈ 0.55 µM) | 0.2 (≈ 0.55 µM) | 0.1 (≈ 0.275 µM) | MIC [13]: 0.0125 µg/mL (≈ 0.0344 µM); MIC [15]: 0.0125 µg/mL (≈ 0.0344 µM); MIC [16]: 0.2 µg/mL (≈ 0.55 µM); MIC (P. aeruginosa IFO 12689): 0.39 µg/mL (≈ 1.07 µM); MIC (S. pneumoniae IID 552): 0.05 µg/mL (≈ 0.138 µM); MIC (P. mirabilis IID 994): 0.025 µg/mL (≈ 0.0688 µM); MIC (K. pneumoniae 1-220S): 0.025 µg/mL (≈ 0.0688 µM); MIC [17]: 0.05 µg/mL (≈ 0.138 µM); MIC (P. aeruginosa IID 1210): 0.78 µg/mL (≈ 2.15 µM); MIC (P. maltophilia GIFU 2491): 0.05 µg/mL (≈ 0.138 µM); MIC [18]: 0.05 µg/mL (≈ 0.138 µM); MIC [19]: 0.025 µg/mL (≈ 0.0688 µM)
CCn1cc(C(=O)O)c(=O)c2cc(F)c(N3C[C@@H](N)[C@@H](C)C3)c(Cl)c21 (relative stereo) [Example 23, 7-(cis-3-Amino-4-methyl-1-pyrrolidinyl)-8-chloro-1-ethyl-6-fluoro-1,4-dihydro-4-oxo-3-quinolinecarboxylic acid] | 0.2 (≈ 0.544 µM) | 0.025 (≈ 0.068 µM) | 12.5 (≈ 34 µM) | 1.56 (≈ 4.24 µM) | 0.78 (≈ 2.12 µM) | 0.05 (≈ 0.136 µM) | 1.56 (≈ 4.24 µM) | 0.78 (≈ 2.12 µM) | 1.56 (≈ 4.24 µM) | 1.56 (≈ 4.24 µM) | 0.78 (≈ 2.12 µM) | 0.78 (≈ 2.12 µM) | 0.78 (≈ 2.12 µM) | 0.1 (≈ 0.272 µM) | 0.39 (≈ 1.06 µM) | 0.1 (≈ 0.272 µM) | 0.2 (≈ 0.544 µM) | 0.78 (≈ 2.12 µM) | 0.78 (≈ 2.12 µM) | 0.39 (≈ 1.06 µM) | MIC [13, 20]: 0.05 µg/mL (≈ 0.136 µM); MIC [15, 20]: 0.05 µg/mL (≈ 0.136 µM); MIC [16]: 1.56 µg/mL (≈ 4.24 µM); MIC (P. aeruginosa IFO 12689): 1.56 µg/mL (≈ 4.24 µM); MIC (S. pneumoniae IID 552): 0.78 µg/mL (≈ 2.12 µM); MIC (P. mirabilis IID 994): 0.05 µg/mL (≈ 0.136 µM); MIC (K. pneumoniae 1-220S): 0.1 µg/mL (≈ 0.272 µM); MIC [17]: 0.05 µg/mL (≈ 0.136 µM); MIC (P. aeruginosa IID 1210): 6.25 µg/mL (≈ 17 µM); MIC (P. maltophilia GIFU 2491; [20]): 0.39 µg/mL (≈ 1.06 µM); MIC [18]: 0.1 µg/mL (≈ 0.272 µM); MIC [19]: 0.1 µg/mL (≈ 0.272 µM)
